Measured values reported in patent publication US9284312B2, “N-methyl tetrahydroquinoline M1 receptor positive allosteric modulators” (Merck Sharp & Dohme Corp., priority 2011, dated 2016).

Each compound was assayed against T1, acetylcholine muscarinic M1 receptor (Homo sapiens, UniProt P11229) (assay: muscarinic FLIPR assay: intracellular calcium in CHOnfat/hM1 cells with EC20 acetylcholine (positive allosteric modulation)). Details: not given.
T1 construct: expressed in transfected cells; host or cells: CHOnfat (CHO cells, Geneticin-selected) expressing hM1
T1 sequence (P11229 1-460): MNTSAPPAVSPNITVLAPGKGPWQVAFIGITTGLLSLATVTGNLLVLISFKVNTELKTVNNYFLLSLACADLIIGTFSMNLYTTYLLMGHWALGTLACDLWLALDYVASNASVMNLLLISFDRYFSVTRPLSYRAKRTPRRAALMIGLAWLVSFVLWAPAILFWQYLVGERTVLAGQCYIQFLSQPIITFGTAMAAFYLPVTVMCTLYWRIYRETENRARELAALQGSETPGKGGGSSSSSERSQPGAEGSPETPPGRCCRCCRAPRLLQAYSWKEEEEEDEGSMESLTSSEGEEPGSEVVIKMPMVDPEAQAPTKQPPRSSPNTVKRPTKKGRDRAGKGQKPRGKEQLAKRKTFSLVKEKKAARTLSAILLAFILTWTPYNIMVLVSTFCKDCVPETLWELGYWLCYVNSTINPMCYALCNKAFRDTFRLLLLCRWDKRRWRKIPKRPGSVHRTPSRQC
Format: cell-based
Description: The assay studies the effect of one or several concentrations of test compounds on basal or acetylcholine-stimulated Ca^2+ levels using FLIPR.
Compounds are prepared and subjected to a preincubation period of 4 min. Thereafter, a single EC20 concentration of acetylcholine is added to each well (3 nM final). The intracellular Ca^2+ level of each sample is measured and compared to an acetylcholine control to determine any modulatory activity.
Cells: CHOnfat/hM1, hM2, hM3 or hM4 cells are plated 24 hr before the assay at a density of 18,000 cells/well (100 μL) in a 384 well plate. CHOnfat/hM1 and CHOnfat/hM3 Growth Medium: 90% DMEM (Hi Glucose); 10% HI FBS; 2 mM L-glutamine; 0.1 mM NEAA; Pen-Strep; and 1 mg/ml Geneticin, are added. For M2Gqi5CHOnfat and M4Gqi5CHOnfat cells, an additional 600 ug/ml hygromycin is added.
Equipment: 384 well plate, 120 μL addition plate; 96-well Whatman 2 ml Uniplate Incubator, 37° C., 5% CO2; Skatron EMBLA-384 Plate Washer; Multimek Pipetting System; Genesis Freedom 200 System; Mosquito System; Temo Nanoliter Pipetting System; and FLIPR^384 Fluorometric Imaging Plate Reader System are used.
Buffers. Assay Buffer: Hanks Balanced Salt Solution, with 20 mM Hepes, 2.5 mM Probenecid (Sigma P-8761) first dissolved in 1 N NaOH, 1% Bovine Serum Albumin (Sigma A-9647). Dye Loading Buffer: Assay Buffer plus 1% Fetal Bovine Serum and Fluo-4AM/Pluronic Acid Mixture. 2 mM Fluo-4AM ester stock in DMSO (Molecular Probes F-14202) Concentration of 2 μM in buffer for a final concentration of […] in Assay. 20% Pluronic Acid Solution stock, with concentration of 0.04% in Buffer, 0.02% in Assay.
65 μL of 2 mM Fluo-4AM are mixed with 130 μL of 20% Pluronic Acid. The resulting solution and 650 μL FBS is added to the assay buffer for a total volume of 65 mL. Positive Controls: 4-Br-A23187: 10 mM in DMSO; final concentration 10 μM. Acetylcholine: 10 mM in water, working stock at both 20 μM and 30 μM in assay buffer, final concentration of 10 μM. This is used to check the maximum stimulation of the CHOK1/hM1 cells. 20 μM (2×) acetylcholine is added in the preincubation part of the assay, and the 30 μM (3×) stock is added in the second part. (EC20)Acetylcholine: 10 mM in water, working stock of 9 nM (3×), and final concentration in assay is 3 nM. This is used after the preincubation with test compounds. Addition of the EC20 Acetylcholine to each well with a test compound will ascertain any modulator activity. 24 wells contain 3 nM Acetylcholine alone as a control.
Determining Activity of Putative Compounds:
Screening Plate: Compounds are titrated in 96-well plates (columns 2-11), 100% DMSO, started at a concentration of 15 mM (150× stock concentration), and 3-fold serial dilutions using Genesis Freedom200 System. Four 96-well plates are combined into a 384-well plate using Mosquito Nanoliter Pipetting System by transferring 1 μl of serial diluted compounds to each well, and 1 mM acetylcholine (100× stock concentration) were added as a control. Using Temo, 49 μl assay buffer is added to each well of the 384-well plate right before assay.
In a 96-well Whatman 2 ml Uniplate, 9 nM Acetylcholine (3×) is pipetted into wells corresponding to the screening compounds, and into control wells. The 30 μM acetylcholine control (3×) is added into control wells, and the 3× agonist plate is transferred into a 384 well plate.
Cells are washed three times with 100 μL of buffer, leaving 30 μL of buffer in each well. Using Multimek, 30 μL of Dye Loading Buffer is added into each well and incubated at 37° C., 5% CO2 for up to one hr.
After 60 min, the cells are washed three times with 100 μL of buffer, leaving 30 μL of buffer in each well. The cell plate, screening plate, and agonist addition plates are placed on the platform in the FLIPR and the door closed. A signal test to check background fluorescence and basal fluorescence signal is performed. Laser intensity is adjusted if necessary. […]

Question: With `CN(C)C(=O)Oc1ccc(Cc2cc3c(=O)n([C@H]4CCCC[C@@H]4O)cnc3c3c2C=CCN3C)cc1` [Example 8, 4-({3-[(1S,2S)-2-Hydroxycyclohexyl]-10-methyl-4-oxo-3,4,9,10-tetrahydropyrido[3,2-h]quinazolin-6-yl}methyl)phenyl dimethylcarbamate] as the compound, how does the EC50 read?
Answer: 25 nM

Same assay, conditions: CHOnfat/hM1 cells, FLIPR Ca2+, 4 min preincubation, then EC20 acetylcholine (3 nM final); read-out: IP Value (inflection point)

Question: `COc1ccc(Cc2cc3c(=O)n([C@H]4CCCC[C@@H]4O)cnc3c3c2C=CCN3C)cn1` [Example 4, 3-[(1S,2S)-2-Hydroxycyclohexyl]-6-[(6-methoxypyridin-3-yl)methyl]-10-methyl-9,10-dihydropyrido[3,2-h]quinazolin-4(3H)-one] was tested. Which EC50 did it give?
Answer: 14 nM

Question: With `CN1CC=Cc2c(Cc3ccc(-c4cnn(C)c4)nc3)cc3c(=O)n([C@H]4CCCC[C@@H]4O)cnc3c21` [Example 6, 3-[(1S,2S)-2-Hydroxycyclohexyl]-10-methyl-6-{[6-(1-methyl-1H-pyrazol-4-yl)pyridin-3-yl]methyl}-9,10-dihydropyrido[3,2-h]quinazolin-4(3H)-one] as the compound, how does the EC50 read?
Answer: 2.6 nM

Question: For `CN1CC=Cc2c(Cc3ccc(Cl)nc3)cc3c(=O)n([C@H]4CCCC[C@@H]4O)cnc3c21` [Example 1, 6-[(6-Chloropyridin-3-yl)methyl]-3-[(1S,2S)-2-hydroxycyclohexyl]-10-methyl-9,10-dihydropyrido[3,2-h]quinazolin-4(3H)-one], which EC50 is on record?
Answer: 3 nM

Question: How did the EC50 turn out when `CSc1ccc(Cc2cc3c(=O)n([C@H]4CCCC[C@@H]4O)cnc3c3c2C=CCN3C)cn1` [Example 3, 3-[(1S,2S)-2-Hydroxycyclohexyl]-10-methyl-6-{[-(methylthio)-pyridin-3-yl]methyl}-9,10-dihydropyrido[3,2-h]quinazolin-4(3H)-one] was run?
Answer: 4.2 nM

Question: How did the EC50 turn out when `COc1cc(Cc2cc3c(=O)n([C@H]4CCCC[C@@H]4O)cnc3c3c2C=CCN3C)ccn1` [Example 9, 3-[(1S,2S)-2-Hydroxycyclohexyl]-6-[(2-methoxypyridin-4-yl)methyl]-10-methyl-9,10-dihydropyrido[3,2-h]quinazolin-4(3H)-one] was run?
Answer: 5.2 nM

Question: Which EC50 does the source give for `CN1CC=Cc2c(Cc3cccnc3)cc3c(=O)n([C@H]4CCCC[C@@H]4O)cnc3c21` [Example 5, 3-[(1S,2S)-2-Hydroxycyclohexyl]-10-methyl-6-(pyridine-3-ylmethyl)-9,10-dihydropyrido[3,2-h]quinazolin-4(3H)-one] here?
Answer: 21 nM

Question: How did the EC50 turn out when `CN1CC=Cc2c(Cc3ccc(O)cc3)cc3c(=O)n([C@H]4CCCC[C@@H]4O)cnc3c21` [Example 7, 6-(4-Hydroxybenzyl)-3-[(1S,2S)-2-hydroxycyclohexyl]-10-methyl-9,10-dihydropyrido[3,2-h]quinazolin-4(3H)-one] was run?
Answer: 2.6 nM

Question: How did the EC50 turn out when `CN1CC=Cc2c(Cc3ccc(Cl)nc3)cc3c(=O)n([C@H]4CCOC[C@@H]4O)cnc3c21` [Example 2, 6-[(6-Chloropyridin-3-yl)methyl]-3-[(3R,4S)-3-hydroxytetrahydro-2H-pyran-4-yl]-10-methyl-9,10-dihydropyrido[3,2-h]quinazolin-4(3H)-one] was run?
Answer: 4.3 nM

Same assay, conditions: column head 'H Pot.' of the untitled table after Table 1; no unit or method printed; read-out: H Pot.

Question: `CCN1CC=Cc2c(Cc3ccc(Cl)nc3)cc3c(=O)n([C@H]4CCCC[C@@H]4O)cnc3c21` [Example 46] was tested. Which EC50 did it give?
Answer: 263 nM
